Source: article PMC9029360, “Cyclooxygenase-Inhibiting Platinum(IV) Prodrugs with Potent Anticancer Activity” (Pharmaceutics, 2022)
Read-outs that look alike come from different tables or passages of the source.

Key:
[1] = test system: cisplatin-resistant ADDP ovarian (subclone of A2780 cell line); assay: In vitro cytotoxicity MTT assay, cisplatin-resistant ADDP ovarian; format: cell-based
[2] = test system: MCF10A breast cell line (non-tumour derived); assay: In vitro cytotoxicity MTT assay, non-tumour MCF10A breast; format: cell-based; conditions: Homo sapiens, MCF-10A, MCF10A (non-cancerous), 72 h drug exposure, n = 3
BE2-C neuroblastoma [3] = assay: In vitro cytotoxicity MTT assay, BE2-C neuroblastoma; format: cell-based; conditions: Homo sapiens, BE(2)-C, 72 h drug exposure, n = 3
[4] = test system: HT29 colon cancer cell line; assay: In vitro cytotoxicity MTT assay, HT29 colon; format: cell-based; conditions: Homo sapiens, HT-29, 72 h drug exposure, n = 3
human COX-2 [5] = target: T1, human COX-2 (Homo sapiens, UniProt P35354)
T1 sequence (P35354 18-604): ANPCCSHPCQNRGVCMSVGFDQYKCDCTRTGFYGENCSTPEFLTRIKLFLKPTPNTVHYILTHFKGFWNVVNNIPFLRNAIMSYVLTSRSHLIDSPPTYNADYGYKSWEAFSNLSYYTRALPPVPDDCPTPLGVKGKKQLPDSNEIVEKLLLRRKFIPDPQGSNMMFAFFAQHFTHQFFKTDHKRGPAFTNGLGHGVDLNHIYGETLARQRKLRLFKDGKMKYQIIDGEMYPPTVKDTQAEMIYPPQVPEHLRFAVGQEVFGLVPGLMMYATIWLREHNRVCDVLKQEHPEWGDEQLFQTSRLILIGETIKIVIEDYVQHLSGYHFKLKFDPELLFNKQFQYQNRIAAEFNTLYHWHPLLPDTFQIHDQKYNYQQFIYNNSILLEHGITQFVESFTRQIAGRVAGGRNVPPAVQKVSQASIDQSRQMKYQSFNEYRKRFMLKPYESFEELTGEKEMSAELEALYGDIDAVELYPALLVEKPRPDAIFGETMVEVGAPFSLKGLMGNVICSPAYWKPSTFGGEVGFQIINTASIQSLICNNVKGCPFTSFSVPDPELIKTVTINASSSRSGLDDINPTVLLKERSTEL
Experimental: (§1) The preparation of standards and samples and the completion of the assay were carried out following the manufacturer’s protocol. As described below, the completion of the assay required three main steps: the preparation of standards, the COX reaction and EIA.
(§2) The preparation of standards involved serial dilution of the prostaglandin (PG)-screening ELISA standard with ELISA buffer.
(§3) All tubes were incubated for 10 min at 37 °C. To initiate the reaction, arachidonic acid (10 µL) was added to each tube. This was incubated for 30 s at 37 °C before stannous chloride (30 µL) was added to stop enzyme catalysis. The tubes were removed from the water bath and vortexed, then incubated for five minutes at room temperature.
(§4) For EIA, ELISA buffer (100 µL) was added to non-specific binding (NSB) wells and ELISA buffer (50 µL) was added to maximum binding (B0) wells; 50 µL from each PG screening standard was added to the standard wells in duplicate. A background sample (50 µL) and COX 100% initial activity samples (50 µL) were added to the wells in duplicate. Each inhibitor sample (50 µL) was added to the wells in triplicate. PG screening acetylcholinesterase (AChE) tracer (50 µL) was added to all wells except for the total activity and blank wells. PG screening ELISA antiserum (50 µL) was added to each well except for the total activity, NSB and blank wells. The plate was covered with plastic film and incubated for 18 h at room temperature on an orbital shaker. The wells were emptied and rinsed with wash buffer five times. Ellman’s reagent (200 µL) was added to each well, followed by AChE tracer (5 µL) in the total activity well. The plate was covered with plastic film and left to develop in the dark using an orbital shaker at room temperature for one hour. The absorbance was recorded at 405 nm using a plate reader.

[6] = test system: Du145 prostate cancer cell line; assay: In vitro cytotoxicity MTT assay, Du145 prostate; format: cell-based; conditions: Homo sapiens, DU-145, 72 h drug exposure, n = 3
U87 glioblastoma [7] = assay: In vitro cytotoxicity MTT assay, U87 glioblastoma; format: cell-based; conditions: 72 h drug exposure, n = 3
MCF-7 breast [8] = assay: In vitro cytotoxicity MTT assay, MCF-7 breast; format: cell-based; conditions: Homo sapiens, MCF7, 72 h drug exposure, n = 3
human COX-2 [9] = target: T1, human COX-2; assay: biochemical; conditions: read-out: COX-2 inhibition
Experimental: as §1, §2, §3, §4

H460 lung [10] = assay: In vitro cytotoxicity MTT assay, H460 lung; format: cell-based; conditions: Homo sapiens, NCI-H460, 72 h drug exposure, n = 3
A431 skin [11] = assay: In vitro cytotoxicity MTT assay, A431 skin; format: cell-based; conditions: Homo sapiens, A-431, 72 h drug exposure, n = 3
SJ-G2 glioblastoma [12] = assay: In vitro cytotoxicity MTT assay, SJ-G2 glioblastoma; format: cell-based; conditions: 72 h drug exposure, n = 3
MIA pancreas [13] = assay: In vitro cytotoxicity MTT assay, MIA pancreas; format: cell-based; conditions: 72 h drug exposure, n = 3
A2780 ovarian [14] = assay: In vitro cytotoxicity MTT assay, A2780 ovarian; format: cell-based; conditions: Homo sapiens, 72 h drug exposure, n = 3
A2780 ovarian [15] = conditions: MTT, 72 h, ref [2] Macias et al., Eur. J. Chem. 2015; cited from earlier work
A431 skin [16] = conditions: MTT, 72 h, ref [2] Macias et al., Eur. J. Chem. 2015; cited from earlier work
MCF-7 breast [17] = conditions: MTT, 72 h, ref [2] Macias et al., Eur. J. Chem. 2015; cited from earlier work
MIA pancreas [18] = conditions: MTT, 72 h, ref [2] Macias et al., Eur. J. Chem. 2015; cited from earlier work
SJ-G2 glioblastoma [19] = conditions: MTT, 72 h, ref [2] Macias et al., Eur. J. Chem. 2015; cited from earlier work
[20] = test system: Du145 prostate cancer cell line; conditions: MTT, 72 h, ref [2] Macias et al., Eur. J. Chem. 2015; cited from earlier work
[21] = test system: MCF10A breast cell line (non-tumour derived); conditions: MTT, 72 h, ref [2] Macias et al., Eur. J. Chem. 2015; cited from earlier work
[22] = test system: cisplatin-resistant ADDP ovarian (subclone of A2780 cell line); conditions: MTT, 72 h, ref [2] Macias et al., Eur. J. Chem. 2015; cited from earlier work
H460 lung [23] = conditions: MTT, 72 h, ref [2] Macias et al., Eur. J. Chem. 2015; cited from earlier work
BE2-C neuroblastoma [24] = conditions: MTT, 72 h, ref [2] Macias et al., Eur. J. Chem. 2015; cited from earlier work
[25] = test system: A2780 (ovarian) and ADDP (cisplatin-resistant ovarian) cancer cell lines; assay: Cellular platinum accumulation by ICP-MS; format: cell-based; conditions: 4 h
U87 glioblastoma [26] = conditions: MTT, 72 h, ref [2] Macias et al., Eur. J. Chem. 2015; cited from earlier work
ADDP cell line = assay: Cellular platinum accumulation by ICP-MS, ADDP; format: cell-based
[27] = test system: HT29 colon cancer cell line; conditions: MTT, 72 h, ref [2] Macias et al., Eur. J. Chem. 2015; cited from earlier work

SMILES: CC(=O)Oc1ccccc1C(=O)O [Aspirin, aspirin]
- GI50 ([1]; Homo sapiens, A2780, ADDP (cisplatin-resistant), MTT, 72 h drug exposure, n = 3): > 50 µM
- GI50 [2]: > 50 µM
- GI50 (BE2-C neuroblastoma [3]): > 50 µM
- GI50 [4]: > 50 µM
- COX-2 inhibition (human COX-2 [5]; at 7 µM): No inhibition
- COX-2 inhibition (human COX-2 [5]; at 70 µM): No inhibition
- GI50 [6]: > 50 µM
- GI50 (U87 glioblastoma [7]): > 50 µM
- GI50 (MCF-7 breast [8]): > 50 µM
- inhibition at 700 µM (human COX-2 [9]): 19%
- GI50 (H460 lung [10]): > 50 µM
- GI50 (A431 skin [11]): > 50 µM
- GI50 (SJ-G2 glioblastoma [12]): > 50 µM
- GI50 (MIA pancreas [13]): > 50 µM
- GI50 (A2780 ovarian [14]): > 50 µM

SMILES: N.N.[Cl][Pt][Cl] [Cisplatin, cisplatin]
- fold less active than PHENSS(IV) (GI50 values) ([1]; ADDP cell line): ~ 22 fold
- fold decrease in activity in the cisplatin-resistant ADDP cell line compared to the A2780 cell line ([1]; ratio of GI50 values ADDP vs A2780): 28 fold
- GI50 (A2780 ovarian [15]): 1 ± 0.1 µM
- GI50 (A431 skin [16]): 2.4 ± 0.3 µM
- GI50 (MCF-7 breast [17]): 6.5 ± 0.8 µM
- GI50 (MIA pancreas [18]): 7.5 µM
- GI50 (SJ-G2 glioblastoma [19]): 0.4 µM
- GI50 [20]: 1.2 ± 0.1 µM
- GI50 [21]: 5.2 µM
- GI50 [22]: 28 µM
- GI50 (H460 lung [23]): 0.9 ± 0.2 µM
- GI50 (BE2-C neuroblastoma [24]): 1.9 ± 0.2 µM
- cellular platinum uptake (rank in words) [25]: lowest uptake
- GI50 (U87 glioblastoma [26]): 3.8 µM
- uptake level, fold lower than PHENSS(IV) (ADDP cell line): ~ two-fold
- GI50 [27]: 11.3 µM
